# Test results as given in patent US10954216B2, “BMP-signal-inhibiting compound” (RIKEN, priority 2016, dated 2021).
# System: BMP signal in MDA-231-D-BREFluc/Rluc cells
# Test: BMP signal inhibitory effect (AlphaScreen SureFire SMAD1 p-Ser463/465, BMP-6 stimulation)
# Assay type: cell-based
# Settings: not given
# Procedure: BMP Signal Inhibitory Effect
# A BMP signal inhibitory activity of a compound of the present invention was evaluated according to the following method.
# MDA-231-D-BREFluc/Rluc cells prepared according to the method described in Y. Katsuno et al., Oncogene, 27, 6322 (2008) were incubated at 37° C. for 2 hours together with test compounds, and BMP-6 (commercially available from R&D System, 507-BM-020) was then added thereto, and the mixture was additionally incubated at 37° C. for 30 minutes. A Lysis Buffer and Acceptor mix of AlphaScreen SureFire SMAD1 (p-Ser463/465) assay kit (commercially available from Perkin Elmer, TGRSM1S10K) were sequentially added thereto, the mixture was incubated at room temperature for 2 hours, and AlphaScreen Protein A kit (commercially available from Perkin Elmer, 6760617) was then added thereto, and standard AlphaScreen settings of Alpha Technology—compatible plate reader (commercially available from Perkin Elmer, EnSpire) was used for measurement.
row,SMILES,IC50 [nM]
1,"CCn1cc(-c2ccnc(Nc3ccc(C(=O)N(C)C4CC5CCC(C4)N5C(C)C)cc3)n2)c(-c2cccnc2)n1 (stereo not drawn) [Example 5, 4-((4-(1-Ethyl-3-(pyridin-3-yl)-1H-pyrazol-4-yl)pyrimidin-2-yl)amino)-N-(8-isopropyl-8-azabicyclo[3.2.1]octan-3-yl)-N-methylbenzamide]",16.9

# Same assay, conditions: BMP-6 stimulated MDA-231-D-BREFluc/Rluc cells, phospho-SMAD1 AlphaScreen; read-out: IC50
row,IC50 [nM],SMILES
1,6.9,"CCn1cc(-c2ccnc(Nc3ccc(C(=O)N4CCN(C(C)(C)C)CC4)cc3)n2)c(-c2cccnc2)n1 [Example 1, (4-(tert-butyl)piperazin-1-yl)(4-((4-(1-ethyl-3-(pyridin-3-yl)-1H-pyrazol-4-yl)pyrimidin-2-yl)amino)phenyl)methanone]"
2,40.7,"CCn1cc(-c2ccnc(Nc3ccc(C(=O)N4CCCCC4)cc3)n2)c(-c2cccnc2)n1 [Example 2, (4-((4-(1-ethyl-3-(pyridin-3-yl)-1H-pyrazol-4-yl)pyrimidin-2-yl)amino)phenyl)(piperidin-1-yl)methanone]"
3,16.3,"CCn1cc(-c2ccnc(Nc3ccc(C(=O)N(C)C4CCN(C)CC4)cc3)n2)c(-c2cccnc2)n1 [Example 4, 4-((4-(1-ethyl-3-(pyridin-3-yl)-1H-pyrazol-4-yl)pyrimidin-2-yl)amino)-N-methyl-N-(1-methylpiperidin-4-yl)benzamide]"
4,29.2,"CCn1cc(-c2ccnc(Nc3ccc(C(C)=O)cc3)n2)c(-c2cccnc2)n1 [Example 6, 1-(4-((4-(1-Ethyl-3-(pyridin-3-yl)-1H-pyrazol-4-yl)pyrimidin-2-yl)amino)phenyl) ethan-1-one]"
5,29.4,"CCn1cc(-c2ccnc(Nc3ccc(C4CCN(C5COC5)CC4)cc3)n2)c(-c2cccnc2)n1 [Example 11, 4-(1-Ethyl-3-(pyridin-3-yl)-1H-pyrazol-4-yl)-N-(4-(1-(oxetan-3-yl)piperidin-4-yl)phenyl)pyrimidin-2-amine]"
6,39,"CCn1cc(-c2ccnc(Nc3ccc(N4CCC5(CC4)CN(C(C)=O)C5)cc3)n2)c(-c2cccnc2)n1 [Example 21, 1-(7-(4-((4-(1-ethyl-3-(pyridin-3-yl)-1H-pyrazol-4-yl)pyrimidin-2-yl)amino)phenyl)-2,7-diazaspiro[3.5]nonan-2-yl)ethan-1-one]"
7,19,"CCn1cc(-c2ccnc(Nc3ccc(N4CCOCC4)cc3)n2)c(-c2cccnc2)n1 [Example 22, 4-(1-ethyl-3-(pyridin-3-yl)-1H-pyrazol-4-yl)-N-(4-morpholinophenyl)pyrimidin-2-amine]"
8,18.5,"CCn1cc(-c2ccnc(Nc3ccc(-n4cnc(C)n4)cc3)n2)c(-c2cccnc2)n1 [Example 26, 4-(1-ethyl-3-(pyridin-3-yl)-1H-pyrazol-4-yl)-N-(4-(3-methyl-1H-1,2,4-triazol-1-yl)phenyl)pyrimidin-2-amine]"
9,32.9,"CCn1cc(-c2ccnc(Nc3ccc(-c4cn[nH]c4)cc3)n2)c(-c2cccnc2)n1 [Example 30, N-(4-(1H-pyrazol-4-yl)phenyl)-4-(1-ethyl-3-(pyridin-3-yl)-1H-pyrazol-4-yl)pyrimidin-2-amine]"
10,19.7,"CCn1cc(-c2ccnc(Nc3ccc(N4CCN(CC(=O)N5CCCCC5)CC4)cc3)n2)c(-c2cccnc2)n1 [Example 31, 2-(4-(4-((4-(1-Ethyl-3-(pyridin-3-yl)-1H-pyrazol-4-yl)pyrimidin-2-yl)amino)phenyl)piperazin-1-yl)-1-(piperidin-1-yl)ethan-1-one]"
11,21.3,"CCn1cc(-c2ccnc(Nc3ccc(N4CCN(C5CC5)CC4)cc3)n2)c(-c2cccnc2)n1 [Example 32, N-(4-(4-cyclopropylpiperazin-1-yl)phenyl)-4-(1-ethyl-3-(pyridin-3-yl)-1H-pyrazol-4-yl)pyrimidin-2-amine]"
12,17.3,"CCn1cc(-c2ccnc(Nc3cccc(N4CCN(C)CC4)c3)n2)c(-c2cccnc2)n1 [Example 34, 4-(1-ethyl-3-(pyridin-3-yl)-1H-pyrazol-4-yl)-N-(3-(4-methylpiperazin-1-yl)phenyl)pyrimidin-2-amine]"
13,11.2,"CCn1cc(-c2ccnc(Nc3ccc(-n4nc(C)nc4C)cc3)n2)c(-c2cccnc2)n1 [Example 39, N-(4-(3,5-dimethyl-1H-1,2,4-triazol-1-yl)phenyl)-4-(1-ethyl-3-(pyridin-3-yl)-1H-pyrazol-4-yl)pyrimidin-2-amine]"
14,36.9,"CCn1cc(-c2ccnc(Nc3ccc(Cn4cncn4)cc3)n2)c(-c2cccnc2)n1 [Example 42, N-(4-((1H-1,2,4-Triazol-1-yl)methyl)phenyl)-4-(1-ethyl-3-(pyridin-3-yl)-1H-pyrazol-4-yl)pyrimidin-2-amine]"
15,5.2,"CCn1cc(-c2ccnc(Nc3ccc(CCN4CCN(CCOC)CC4)cc3)n2)c(-c2cccnc2)n1 [Example 43, 4-(1-ethyl-3-(pyridin-3-yl)-1H-pyrazol-4-yl)-N-(4-(2-(4-(2-methoxyethyl)piperazin-1-yl)ethyl)phenyl)pyrimidin-2-amine]"
16,14.5,"CCn1cc(-c2ccnc(Nc3ccc(-n4ccnc4)cc3)n2)c(-c2cccnc2)n1 [Example 44, N-(4-(1H-Imidazol-1-yl)phenyl)-4-(1-ethyl-3-(pyridin-3-yl)-1H-pyrazol-4-yl)pyrimidin-2-amine]"
17,12.1,"CCn1cc(-c2ccnc(Nc3ccc(C4CCN(C)CC4)c(F)c3)n2)c(-c2cccnc2)n1 [Example 45, 4-(1-ethyl-3-(pyridin-3-yl)-1H-pyrazol-4-yl)-N-(3-fluoro-4-(1-methylpiperidin-4-yl)phenyl)pyrimidin-2-amine]"

# The remaining lines, values behind:
row,SMILES,IC50 [nM]
1,"CCn1cc(-c2ccnc(Nc3ccc4c(n3)CCN(C)C4)n2)c(-c2cccnc2)n1 [Example 7, N-(4-(1-ethyl-3-(pyridin-3-yl)-1H-pyrazol-4-yl)pyrimidin-2-yl)-6-methyl-5,6,7,8-tetrahydro-1,6-naphthyridin-2-amine]",144
2,"CN1CCc2cc(Nc3nccc(-c4cn(C5COC5)nc4-c4cccnc4)n3)ccc2C1 [Example 8, 2-methyl-N-(4-(1-(oxetan-3-yl)-3-(pyridin-3-yl)-1H-pyrazol-4-yl)pyrimidin-2-yl)-1,2,3,4-tetrahydroisoquinolin-6-amine]",6.8
3,"CCn1cc(-c2ccnc(Nc3ccc4c(c3)CN(C3COC3)C4)n2)c(-c2cccnc2)n1 [Example 9, N-(4-(1-Ethyl-3-(pyridin-3-yl)-1H-pyrazol-4-yl)pyrimidin-2-yl)-2-(oxetan-3-yl)isoindolin-5-amine]",23.5
4,"CN1CCc2cc(Nc3nccc(-c4cn(CC5CCOC5)nc4-c4cccnc4)n3)ccc2C1 (stereo not drawn) [Example 10, 2-Methyl-N-(4-(3-(pyridin-3-yl)-1-((tetrahydrofuran-3-yl)methyl)-1H-pyrazol-4-yl)pyrimidin-2-yl)-1,2,3,4-tetrahydroisoquinolin-6-amine]",5.8
5,"COCCN1CCC(c2ccc(Nc3nccc(-c4cn(C5COC5)nc4-c4cccnc4)n3)cc2)CC1 [Example 12, N-(4-(1-(2-methoxyethyl)piperidin-4-yl)phenyl)-4-(1-(oxetan-3-yl)-3-(pyridin-3-yl)-1H-pyrazol-4-yl)pyrimidin-2-amine]",6.6
6,COCCn1cc(-c2ccnc(Nc3ccc(C4CCN(C5COC5)CC4)cc3)n2)c(-c2cccnc2)n1 [Example 13],26.8
7,"CCn1cc(-c2ccnc(Nc3ccc(-c4cn5ccccc5n4)cc3)n2)c(-c2cccnc2)n1 [Example 14, 4-(1-ethyl-3-(pyridin-3-yl)-1H-pyrazol-4-yl)-N-(4-(imidazo[1,2-a]pyridin-2-yl)phenyl)pyrimidin-2-amine]",36.4
8,"CCn1cc(-c2ccnc(Nc3ccc(N4CCN(CCOC)CC4)c(F)c3)n2)c(-c2cccnc2)n1 [Example 18, 4-(1-Ethyl-3-(pyridin-3-yl)-1H-pyrazol-4-yl)-N-(3-fluoro-4-(4-(2-methoxyethyl)piperazin-1-yl)phenyl)pyrimidin-2-amine]",30.8
9,CCn1cc(-c2ccnc(Nc3ccc(N4CCC(N5CCN(C)CC5)CC4)cc3)n2)c(-c2cccnc2)n1 [Example 20],11.8
10,"CCn1cc(-c2ccnc(Nc3cccc(OCCN(C)C)c3)n2)c(-c2cccnc2)n1 [Example 24, N-(3-(2-(dimethylamino)ethoxy)phenyl)-4-(1-ethyl-3-(pyridin-3-yl)-1H-pyrazol-4-yl)pyrimidin-2-amine]",5.3
11,"CCn1cc(-c2ccnc(Nc3ccc(-c4cnn(CCOC)c4)cc3)n2)c(-c2cccnc2)n1 [Example 28, 4-(1-Ethyl-3-(pyridin-3-yl)-1H-pyrazol-4-yl)-N-(4-(1-(2-methoxyethyl)-1H-pyrazol-4-yl)phenyl)pyrimidin-2-amine]",24.6
12,"COCCn1cc(-c2ccnc(Nc3ccc(N4CCN(C)CC4)cc3)n2)c(-c2cccnc2)n1 [Example 35, 4-(1-(2-methoxyethyl)-3-(pyridin-3-yl)-1H-pyrazol-4-yl)-N-(4-(4-methylpiperazin-1-yl)phenyl)pyrimidin-2-amine]",22.5
13,"COCCn1cc(-c2ccnc(Nc3ccc(N4CCN(CC5CC5)CC4)cc3)n2)c(-c2cccnc2)n1 [Example 36, N-(4-(4-(Cyclopropylmethyl)piperazin-1-yl)phenyl)-4-(1-(2-methoxyethyl)-3-(pyridin-3-yl)-1H-pyrazole-4-yl)pyrimidin-2-amine]",15.9
14,"CCn1cc(-c2ccnc(Nc3cccc(CN(C)C)c3)n2)c(-c2cccnc2)n1 [Example 40, N-(3-((dimethylamino)methyl)phenyl)-4-(1-ethyl-3-(pyridin-3-yl)-1H-pyrazol-4-yl)pyrimidin-2-amine]",5
15,"CCn1cc(-c2ccnc(Nc3ccc(N4CCN(C)CC4)c(OC)c3)n2)c(-c2cccnc2)n1 [Example 47, 4-(1-ethyl-3-(pyridin-3-yl)-1H-pyrazol-4-yl)-N-(3-methoxy-4-(4-methylpiperazin-1-yl)phenyl)pyrimidin-2-amine]",10.2
